From patent US5304474A, “Hydrophobic peptide esters and amides” (Board of Regents, The University of Texas System, priority 1991, dated 1994)
Read-outs that look alike come from different tables or passages of the source. Peptide text beside a SMILES is read from it.

How the values were obtained:
[1] = system: peripheral blood lymphocytes (PBL); assay: [3H]Leu-Leu-OMe uptake/binding by lymphocytes; format: in vitro ADME, human
Description: (§1) Human peripheral blood lymphocytes (PBL) were incubated in the presence of [^3 H]labeled Leu-Leu-OMe at 22° C. for varying lengths of time. The incubation mixture was then centrifuged through silicone oil to separate the cells from any unbound or non-internalized [^3 HLeu-Leu-OMe. […] At 37° C., levels of [^3 H]Leu-Leu-OMe accumulation by PBL were increased above those seen at 22° C. (see Table 4).

[2] = Conversion of [3H]Leu-Leu-OMe in cells to a product which precipitates in 10% TCA; format: in vitro ADME, human; settings: for Fractional Conversion of [^3 H]Leu--Leu--OMe to a product which Precipitates in 10% TCA: Intact NK, T8 Cells
Description: Additional experiments, detailed in Table 7, were performed to assess the metabolic fate of [^3 H]Leu-Leu-OMe within PBL. Cells were incubated with [^3 H]Leu-Leu-OMe for 15 minutes at 22° C. to permit uptake of this compound and then were washed. If the cells were immediately lysed and 10% trichloroacetic acid (TCA) was added to precipitate higher molecular weight cell proteins and nucleic acids, essentially all of the [^3 H]label remained in the supernatant as anticipated for a small molecular weight peptide which is soluble in 10% TCA.
In experiment 1 of Table 8 non-adherent peripheral blood lymphocytes were incubated in the presence or absence of 250 micro-M unlabeled Leu-Leu-OMe for 15 minutes and then cultured overnight at 37° C. This form of exposure to Leu-Leu-OMe has been shown previously herein to result inloss of NK cells and a substantial fraction of CD8(+) T cells, whereas the majority of CD4(+) lymphocytes are resistant to any toxic effects of this agent and remain viable and functionally intact. […] However, when production of a product which precipitated in 10% TCA was assessed following a second incubation at 37° C. for 30 minutes, it was noted that the LLMe resistant subset of lymphocytes produced almost no detectable amounts of this as yet unidentified product.
In experiment 2 (Table 8), PBL were divided into a CD4(+) T cell (T4 cell)-enriched population and a T8, NK-enriched population by staining with anti-CD4 or anti-CD8 monoclonal antibodies and panning on goat anti-mouse coated petri dishes to enrich for the unstained lymphocyte subsets as previously described (see prior Examples and J. Immunol. 1986 136:1038-1048). Again, it was noted that T4 cells took up less [^3 H]Leu-Leu-OMe during an initial incubation than did a population of lymphocytes enriched for T8 and NK cells. However, the differences in production of a product which precipitated in 10% TCA were even more dramatic. Whereas initial [^3 H]Leu-Leu-Me uptake by T4 cells was approximately 53% of that seen with an equal number of T8 and NK cells, the amount of [^3 H]label appearing in a 10% TCA precipitate of the T4 cell sonicate after a subsequent 30 minute incubation was less than 7% of the quantity noted in the TCA precipitable of T8 and NK cell sonicates. Furthermore, little or no TCA insoluble product was produced by other non-lymphoid cell types such as dermal fibroblasts or a renal cell carcinoma line, Cur, which have been previously noted to be resistant to the toxicity of Leu-Leu-OMe (J. Immunol 1986: 136:1038-1048). […] As proteinase K digestion removed this product, it was likely to be a larger peptide or protein into which [^3 H]Leu had been incorporated.

[3] = biological target: T1, dipeptidyl peptidase I (DPPI) (Bos taurus, UniProt Q3ZCJ8); assay: Polymerization of [3H]Leu-Leu-OMe to a TCA insoluble product by purified enzyme; format: biochemical, bovine
T1 sequence (Q3ZCJ8 231-394 limits assumed): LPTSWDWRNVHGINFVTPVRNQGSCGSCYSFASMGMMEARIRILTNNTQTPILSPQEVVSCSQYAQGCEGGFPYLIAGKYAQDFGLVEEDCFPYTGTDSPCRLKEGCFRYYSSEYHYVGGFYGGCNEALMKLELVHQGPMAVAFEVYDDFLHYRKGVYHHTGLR
T1 sequence (Q3ZCJ8 25-134 limits assumed): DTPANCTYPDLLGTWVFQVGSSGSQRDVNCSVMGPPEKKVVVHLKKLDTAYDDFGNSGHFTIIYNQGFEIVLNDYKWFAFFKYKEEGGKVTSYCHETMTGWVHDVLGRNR
T1 sequence (Q3ZCJ8 395-463 limits assumed): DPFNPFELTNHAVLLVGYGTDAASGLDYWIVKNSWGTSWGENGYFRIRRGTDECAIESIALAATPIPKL
Source text: When R1 and R2 are amino acids with nonpolar side groups, such products are very hydrophobic and water insoluble (J. Biol. Chem. 1952; 195:645-656). […] Of note, much lower extracellular concentrations of Leu-Leu-OMe are required for production of a similar product within NK and T8 cells.

[4] = system: human erythrocytes (RBC); assay: 51Cr release from RBC incubated with peptide ester alone; format: cell-based; settings: for ^51 Cr Release from RBC: Nil 410 + 12
Description: (§2) The following experiments were carried out to determine whether DPPI could generate a lytic product from Leu-Leu-OMe. In the experiment detailed in FIG. 12, ^51 Cr-labeled human erythrocytes (RBC) were incubated with varying concentrations of Leu-Leu-OMe alone or in the presence of purified bovine DPPI.

[5] = system: production of a TCA insoluble product from [^3 H]Leu-Leu-OMe; format: cell-based, human
Source text: Iodoacetamide nonspecifically binds covalently to free sulfhydryl groups and thereby inhibits thiol protease function as well as other enzymatic reactions dependent on the presence of reduced sulfhydryl groups.

[6] = system: [^3 H]Leu-Leu-OMe uptake by PBL (facilitated transport); assay: Competitive inhibition of [3H]Leu-Leu-OMe uptake; format: cell-based, human; settings: for inhibition at 250 µM: Homo sapiens, unlabeled compound 250 microM, [3H]Leu-Leu-OMe 10 microM (Table 5)
Description: as §1

[7] = biological target: T1, dipeptidyl peptidase I (DPPI); assay: Dipeptidyl peptidase I catalyzed lysis of human RBC; format: cell-based, bovine; settings: FIG. 12, FIG. 13
Description: as §2
In the experiments detailed in FIG. 13, ^51 Cr-labeled RBC's were exposed to various dipeptide esters or amides in the presence or absence of purified DPPI. […] The first observation is probably related to the inability of this enzyme to catalyze transpeptidation of peptide esters containing D-stereoisomers of amino acids. The latter observations are likely to be related to the fact that polymers of Ser-Leu or Leu-Tyr are not hydrophobic and therefore unlikely to enter and disrupt cell membranes.

[8] = system: natural killer cells (NK); assay: NK function: lysis of K562 target cells (51Cr release) after preincubation of lymphocytes with compound; settings: for NK toxicity / effect on NK function, in words: lymphocytes exposed 15 minutes at room temperature (FIG. 4, FIG. 5)
[9] = Expt. 1, LLMe Resistant Lymphocytes
[10] = Expt. 1, Non-adherent Lymphocytes
[11] = second 37° C. incubation 15 minutes
[12] = second 37° C. incubation 30 minutes
[13] = second 37° C. incubation 60 minutes
[14] = Expt. 1, Cycloheximide 100 micro-g/ml, PMSF 1 micro-M, Iodoacetamide 0.5 micro-M, Nil 2,160 + 193

Q: What does the source list for `COC(=O)[C@H](CC(C)C)NC(=O)[C@@H](N)CC(C)C` [[^3 H]Leu--Leu--OMe]?
A: [^3 H]Leu--Leu--OMe Uptake/Binding ([1]; Expt. 1, 0° C.): 0.05 micro-moles/10^6 cells; [^3 H]Leu--Leu--OMe Uptake/Binding ([1]; Expt. 1, 22° C.): 0.77 micro-moles/10^6 cells; [^3 H]Leu--Leu--OMe Uptake/Binding ([1]; Expt. 2, 4° C.): 0.02 micro-moles/10^6 cells; [^3 H]Leu--Leu--OMe Uptake/Binding ([1]; Expt. 2, 22° C.): 0.31 micro-moles/10^6 cells; [^3 H]Leu--Leu--OMe Uptake/Binding ([1]; Expt. 2, 37° C.): 0.52 micro-moles/10^6 cells; Incorporation, Initial [2, 9]: 7,184 cpm; Incorporation, TCA Precipitate [2, 9]: 50 cpm; TCA Precipitate (% of initial) [2, 9]: 0.7%; Incorporation, Initial [2, 10]: 27,870 cpm; TCA Precipitate (% of initial) [2, 10]: 8.4%; Incorporation, TCA Precipitate ([2]; Expt. 1, Non-adherent Lymphocytes, 30 minutes 37° C.): 2,341 cpm; Incorporation, Initial ([2]; Expt. 2, Fibroblasts): 63,229 cpm; Incorporation, TCA Precipitate ([2]; Expt. 2, Fibroblasts): 293 cpm; TCA Precipitate (% of initial) ([2]; Expt. 2, Fibroblasts): 0.5%; Incorporation, Initial ([2]; Expt. 2, Renal Cell Carcinoma): 35,855 cpm; Incorporation, TCA Precipitate ([2]; Expt. 2, Renal Cell Carcinoma): 267 cpm; TCA Precipitate (% of initial) ([2]; Expt. 2, Renal Cell Carcinoma): 0.7%; Incorporation, Initial ([2]; Expt. 2, T4 Cells): 12,200 cpm; Incorporation, TCA Precipitate ([2]; Expt. 2, T4 Cells): 207 cpm; TCA Precipitate (% of initial) ([2]; Expt. 2, T4 Cells): 1.7%; Incorporation, Initial ([2]; Expt. 2, T8, NK Cells): 22,753 cpm; Incorporation, TCA Precipitate ([2]; Expt. 2, T8, NK Cells): 3,208 cpm; TCA Precipitate (% of initial) ([2]; Expt. 2, T8, NK Cells): 14.1%; initial uptake by T4 cells relative to equal number of T8 and NK cells ([2]; Expt. 2 of Table 8): approximately 53%; Fractional Conversion of [^3 H]Leu--Leu--OMe to a product which Precipitates in 10% TCA ([2]; 1 micro-M): < 0.1%; Fractional Conversion of [^3 H]Leu--Leu--OMe to a product which Precipitates in 10% TCA ([2]; 10 micro-M): < 0.2%; Fractional Conversion of [^3 H]Leu--Leu--OMe to a product which Precipitates in 10% TCA ([2]; 100 micro-M): 11.1%; Fractional Conversion of [^3 H]Leu--Leu--OMe to a product which Precipitates in 10% TCA ([2]; 250 micro-M): 23.2%; [^3 H]Leu--Leu--OMe Total ([2]; PBL, 15 minutes 22° C., second 37° C. incubation 0): 61.4 cpm × 10^-3; label in TCA precipitate of T4 cell sonicate relative to T8 and NK cell sonicates ([2]; after 30 minute incubation): less than 7%; [^3 H]Leu--Leu--OMe TCA Prec. ([2]; second 37° C. incubation 0): 0.5 cpm × 10^-3; [^3 H]Leu--Leu--OMe TCA Prec. [2, 11]: 6.8 cpm × 10^-3; [^3 H]Leu--Leu--OMe Total [2, 11]: 24.9 cpm × 10^-3; [^3 H]Leu--Leu--OMe TCA Prec. [2, 12]: 12.7 cpm × 10^-3; [^3 H]Leu--Leu--OMe Total [2, 12]: 20.6 cpm × 10^-3; [^3 H]Leu--Leu--OMe TCA Prec. [2, 13]: 10.7 cpm × 10^-3; [^3 H]Leu--Leu--OMe Total [2, 13]: 12.7 cpm × 10^-3; Fractional Conversion of [^3 H]Leu--Leu--OMe to a product which Precipitates in 10% TCA ([3]; 1 micro-M): < 0.01%; Fractional Conversion of [^3 H]Leu--Leu--OMe to a product which Precipitates in 10% TCA ([3]; 10 micro-M): 0.03%; Fractional Conversion of [^3 H]Leu--Leu--OMe to a product which Precipitates in 10% TCA ([3]; 100 micro-M): 0.08%; Fractional Conversion of [^3 H]Leu--Leu--OMe to a product which Precipitates in 10% TCA ([3]; 1000 micro-M): 20.0%

Q: With `COC(=O)[C@H](CC(C)C)NC(=O)[C@H](CC(C)C)NC(=O)[C@H](CC(C)C)NC(=O)[C@@H](N)CC(C)C` [LLLLOMe] (H-LLLL-OMe) as the compound, how does the “^51 Cr Release from RBC” value ([4]; 100 micro-M) read?
A: 425 + 24

Q: And the “^51 Cr Release from RBC” value ([4]; 500 micro-M)?
A: 457 + 41

Q: What does the source list for `NC(=O)CI` [Iodoacetamide, iodoacetamide]?
A: [^3 H]Leu--Leu--OMe Incorporation, 10% TCA Precipitate [5]: 243 + 16 cpm; [^3 H]Leu--Leu--OMe Incorporation, Initial [5]: 6,316 + 188 cpm; [^3 H]Leu--Leu--OMe Incorporation, 10% TCA Precipitate [5, 14]: 140 + 5 cpm

Q: Which “competitive inhibition of [3H]Leu-Leu-OMe uptake, in words” value [6] does the source give for `CC(C)C[C@H](NC(=O)[C@@H](N)CC(C)C)C(=O)O` [Leu-Leu, L-leucyl L-leucine, reference compound] here?
A: competitively inhibited

Q: And the inhibition at 250 µM [6]?
A: 44%

Q: And the “RBC lysis in the presence of purified DPPI, in words” value [7]?
A: not polymerized by DPPI to form a product capable of lysing RBC's

Q: And the “NK toxicity / effect on NK function, in words” value [8]?
A: had no inhibitory effect

Q: What does the source list for `COC(=O)[C@@H](CC(C)C)NC(=O)[C@H](N)CC(C)C` [D-Leu-D-Leu-OMe]?
A: competitive inhibition of [3H]Leu-Leu-OMe uptake, in words [6]: do not competitively inhibit PBL uptake of L-Leu-L-Leu-OMe; inhibition at 250 µM [6]: 7%; RBC lysis in the presence of purified DPPI, in words [7]: unable to produce a membrane active metabolite; effect on Leu-Leu-OMe mediated NK toxicity ([8]; added with Leu-Leu-OMe): had no effect on Leu-Leu-OMe mediated NK toxicity; NK toxicity / effect on NK function, in words [8]: had no inhibitory effect

Q: With `O=S(=O)(F)Cc1ccccc1` [PMSF, phenylmethylsulfonylfluoride] as the compound, how does the “[^3 H]Leu--Leu--OMe Incorporation, 10% TCA Precipitate” value [5, 14] read?
A: 2,078 + 213 cpm

Q: Which “^51 Cr Release from RBC” value ([4]; 20 micro-M) does the source give for `COC(=O)[C@H](CC(C)C)NC(=O)[C@H](CC(C)C)NC(=O)[C@H](CC(C)C)NC(=O)[C@H](CC(C)C)NC(=O)[C@H](CC(C)C)NC(=O)[C@@H](N)CC(C)C` [LLLLLLOMe] (H-LLLLLL-OMe) here?
A: 698 + 137

Q: What about the “^51 Cr Release from RBC” value ([4]; 100 micro-M) of the same compound?
A: 6,129 + 400

Q: What about the “^51 Cr Release from RBC” value ([4]; 500 micro-M) of the same compound?
A: 3,531 + 101

Q: And the “damage to RBC by compound alone, in words” value ([4]; no DPPI)?
A: Disruption of erythrocyte membranes was observed

Q: With `COC(=O)[C@@H](N)CC(C)C` [Leu-OMe, L-leucine methyl ester, reference compound] as the compound, how does the “competitive inhibition of [3H]Leu-Leu-OMe uptake, in words” value [6] read?
A: do not competitively inhibit PBL uptake of L-Leu-L-Leu-OMe

Q: What about the inhibition at 250 µM [6] of the same compound?
A: -10%

Q: What about the “RBC lysis in the presence of purified DPPI, in words” value [7] of the same compound?
A: not polymerized by DPPI to form a product capable of lysing RBC's

Q: And the NK activity ([8]; PBM, 5 mM (FIG. 1))?
A: ablated all NK activity

Q: And the “NK toxicity / effect on NK function, in words” value [8]?
A: had no irreversible effect on NK function
